Data reported in BigSolDB 2.1.

CC(=O)N1CCN(c2ccc(OC[C@@H]3CO[C@@](Cn4ccnc4)(c4ccc(Cl)cc4Cl)O3)cc2)CC1 (racemic)
solubility (mole fraction) (in n-propanol, 293.2 K): 0.0056 | solubility (mole fraction) (in n-propanol, 298.2 K): 0.00703 | solubility (mole fraction) (in n-propanol, 303.2 K): 0.00948 | solubility (mole fraction) (in n-propanol, 308.2 K): 0.0128 | solubility (mole fraction) (in n-propanol, 313.2 K): 0.0175 | solubility (mole fraction) (in water, 293.2 K): 3.8e-07 | solubility (mole fraction) (in water, 298.2 K): 4.25e-07 | solubility (mole fraction) (in water, 303.2 K): 4.46e-07 | solubility (mole fraction) (in water, 308.2 K): 4.8e-07 | solubility (mole fraction) (in water, 313.2 K): 5.11e-07
